As a reminder, the IC50 is the concentration that inhibits the measured activity by half.

Molecules are shown by their SMILES. Activity calls are given as the source filed them. The calls are words filed in the database; no cut-off is given here.

Series [1] has as its system BV-2. The series can be described thus: Antiinflammatory activity in mouse BV2 cells assessed as reduction in LPS-induced nitric oxide production by griess assay. It counts as functional, cell-based. In general terms: The Griess reaction detects nitrite, a stable product of nitric oxide.
The test system of series [2] is BV-2. In words: Cytotoxicity against mouse BV2 cells assessed as reduction in cell viability. It counts as cell-based.
Series [3] has as its system BV-2. The series can be described thus: Antiinflammatory activity in mouse BV2 cells assessed as reduction in LPS-induced iNOS expression at 10 to 100 uM preincubated for 30 mins followed by LPS stimulation and measured after 24 hrs by Western blot analysis. It is filed as functional, cell-based. (In general: A western blot detects proteins with antibodies after separation by electrophoresis.)

The subject of series [4] is BV-2. In words: Antiinflammatory activity in mouse BV2 cells assessed as reduction in LPS-induced COX2 expression at 10 to 100 uM preincubated for 30 mins followed by LPS stimulation and measured after 24 hrs by Western blot analysis. It counts as functional, cell-based.

Consider `COC(=O)C/C(C=O)=C\C[C@@]1(C)[C@H](C)C[C@H](OC(C)=O)[C@]2(COC(C)=O)[C@@H]1[C@H](O)CC[C@]21CO1`, for which the IC50 in the series on BV-2 [1] was more than 100 µM. Also, in the series with BV-2 [2], the Activity result is on record as “Non-Toxic”.
As for `C/C=C(\C)C(=O)O[C@@H](C[C@@]1(C)[C@H](C)C[C@H](O)[C@]2(C)[C@@H]1CCC[C@H]2C(=O)OC)C1=CC(=O)OC1`, in the series on BV-2 [1], the concentration for half-maximal inhibition (IC50) came out at 25.8 µM. Moreover, the result with BV-2 [3] and in the series with BV-2 [4] was Active. In addition, the Activity result with BV-2 [2] is “Non-Toxic”.
Regarding `CC[C@H](C)C(=O)O[C@@H](C[C@@]1(C)[C@H](C)C[C@H](O)[C@]2(C)[C@@H]1CCC[C@H]2C(=O)OC)C1=CC(=O)OC1`, in the series with BV-2 [1], the IC50 was 45 µM. For the same compound, the Activity result with BV-2 [2] was “Non-Toxic”.
`C/C=C(\C)C(=O)OC[C@@]12[C@H](CCC[C@]1(O)CCl)[C@@](C)(CCC1=CC(=O)OC1)[C@H](C)C[C@@H]2O`: the IC50 in the series with BV-2 [1] was 20.2 µM. The outcome with BV-2 [3] and in the series on BV-2 [4] was Active. Moreover, the Activity result in the series with BV-2 [2] was “Non-Toxic”.
In the case of `CSC(=N)N`, the IC50 with BV-2 [1] worked out at 2.4 µM.

The record behind these values is ChEMBL document CHEMBL4610096, “Anti-inflammatory neo-Clerodane Diterpenoids from Ajuga pantantha” (J Nat Prod, 2020).
